Experimental data from patent US20260256792A1, “TREATMENT OF CHRONIC SPONTANEOUS URTICARIA BY ADMINISTERING (R)-2-[3-[4-AMINO-3-(2-FLUORO-4-PHENOXY-PHENYL)PYRAZOLO[3,4-D]PYRIMIDIN-1-YL]PIPERIDINE-1-CARBONYL]-4-METHYL-4-[4-(OXETAN-3-YL)PIPERAZIN-1-YL]PENT-2-ENENITRILE” (priority 2023, published 2026).

Test system: moderate-to-severe chronic spontaneous urticaria (CSU)
Experiment: Phase 2 CSU study: urticaria activity score over 7 days (UAS7)
Type: in vivo, human
Set-up: key to UAS7 Median / UAS7 Change from baseline Median / UAS7 change from baseline, Q1 / UAS7 change from baseline, Q3 / UAS7 change from baseline, Max / UAS7 Change from baseline LS Mean (SE): UAS7 points; daily UAS score ranges 0–6 points/day, over 7 days
Details: for RRD (%) for rilzabrutinib vs. placebo, UAS7 = 0 / RRD (%) for rilzabrutinib vs. placebo, UAS7 ≤6 / Responder n (%), UAS7 = 0 / Responder n (%), UAS7 ≤6 / Imputed non-responder n (%), UAS7 = 0 / Imputed non-responder n (%), UAS7 ≤6 / Non-responder n (%), UAS7 = 0 / Non-responder n (%), UAS7 ≤6 / OR for rilzabrutinib vs. placebo, UAS7 = 0 / OR for rilzabrutinib vs. placebo, UAS7 ≤6: Omalizumab-naïve, 400 mg TID; for Non-responder, UAS7 reduction from baseline of 10 points or more / OR for rilzabrutinib vs. placebo, UAS7 reduction of 10 points or more / RRD (%) for rilzabrutinib vs. placebo, UAS7 reduction of 10 points or more / Responder, UAS7 reduction from baseline of 10 points or more / UAS7 Change from baseline Mean (SD) / UAS7 Change from baseline Median / UAS7 Mean (SD) / UAS7 Median / UAS7 Percent change from baseline Mean (SD) / UAS7 Percent change from baseline Median: Week 1
Description: The study comprises a 12 week, randomized, double-blind, placebo-controlled, multi-center, dose-ranging efficacy and safety phase, followed by a 40 week open label extension (OLE) phase (see FIG. 1). The study consists of three phases and an optional OLE phase. […] Clinically, CSU is characterized by the spontaneous and recurrent appearance of pruritic hives. The proposed primary endpoints were the UAS7 at Week 12 in EU and EU reference countries and the ISS7 in the US. Regardless of where a participant was from, all assessments were the same. The UAS7 score is a composite score containing both the HSS7 and the ISS7. This allowed a global assessment of the two key components of urticaria: hives and itch. […] The UAS is a validated PRO measure. […] The daily UAS scores range from 0 to 6 point/day. […] Patients were to complete the UAS using the e-diary. […] The following secondary endpoints were to be analyzed using the same approach as for the primary endpoint: • Change from baseline in UAS7 at Week 4 • Change from baseline in UAS7 at Week 12 (for US and US reference countries) • Change from baseline in ISS7 at Week 12 (except US and US reference countries) • Change from baseline in HSS7 at Week 12 The following responder secondary endpoints were to be analyzed using the Cochran-Mantel-Haenszel test adjusted by region: • Proportion of participants with UAS7<6 at Week 12 • Proportion of participants with UAS7=0 at Week 12 Participants who received selected prohibited medications and/or rescue medications were to be considered as non-responders for time points after the medication usage. For other participants, all available data including those collected during the off-treatment period were to be used to determine the responder/non-responder status. Missing data were to be considered as non-responders.

[1] = 400 mg BID, Prior Omalizumab Use
[2] = 400 mg BID, omalizumab-naive participants
[3] = 400 mg QPM, Prior Omalizumab Use

SMILES: CC(C)(C=C(C#N)C(=O)N1CCC[C@@H](n2nc(-c3ccc(Oc4ccccc4)cc3F)c3c(N)ncnc32)C1)N1CCN(C2COC2)CC1 [rilzabrutinib, (R)-2-[3-[4-amino-3-(2-fluoro-4-phenoxy-phenyl)pyrazolo[3,4-d]pyrimidin-1-yl]piperidine-1-carbonyl]-4-methyl-4-[4-(oxetan-3-yl)piperazin-1-yl]pent-2-enenitrile]
- RRD (%) for rilzabrutinib vs. placebo, UAS7 = 0 (Week 9): −0.9 %
- RRD (%) for rilzabrutinib vs. placebo, UAS7 ≤6 (Week 9): 16.7 %
- Responder n (%), UAS7 = 0 (Week 9): 3 (8.6) n (%)
- Responder n (%), UAS7 ≤6 (Week 9): 11 (31.4) n (%)
- Imputed non-responder n (%), UAS7 = 0 (Week 10): 5 (14.3) n (%)
- Imputed non-responder n (%), UAS7 ≤6 (Week 10): 5 (14.3) n (%)
- Non-responder n (%), UAS7 = 0 (Week 10): 31 (88.6) n (%)
- Non-responder n (%), UAS7 ≤6 (Week 10): 25 (71.4) n (%)
- OR for rilzabrutinib vs. placebo, UAS7 = 0 (Week 10): 0.819
- OR for rilzabrutinib vs. placebo, UAS7 ≤6 (Week 10): 2.241
- RRD (%) for rilzabrutinib vs. placebo, UAS7 = 0 (Week 10): −1.7 %
- RRD (%) for rilzabrutinib vs. placebo, UAS7 ≤6 (Week 10): 12.1 %
- Responder n (%), UAS7 = 0 (Week 10): 4 (11.4) n (%)
- Responder n (%), UAS7 ≤6 (Week 10): 10 (28.6) n (%)
- Imputed non-responder n (%), UAS7 = 0 (Week 11): 4 (11.4) n (%)
- Imputed non-responder n (%), UAS7 ≤6 (Week 11): 4 (11.4) n (%)
- Non-responder n (%), UAS7 = 0 (Week 11): 31 (88.6) n (%)
- Non-responder n (%), UAS7 ≤6 (Week 11): 24 (68.6) n (%)
- OR for rilzabrutinib vs. placebo, UAS7 = 0 (Week 11): 1.846
- OR for rilzabrutinib vs. placebo, UAS7 ≤6 (Week 11): 1.971
- RRD (%) for rilzabrutinib vs. placebo, UAS7 = 0 (Week 11): 4.3 %
- RRD (%) for rilzabrutinib vs. placebo, UAS7 ≤6 (Week 11): 11.2 %
- Responder n (%), UAS7 = 0 (Week 11): 4 (11.4) n (%)
- Responder n (%), UAS7 ≤6 (Week 11): 11 (31.4) n (%)
- Imputed non-responder n (%), UAS7 = 0 (Week 12): 8 (22.9) n (%)
- Imputed non-responder n (%), UAS7 ≤6 (Week 12): 8 (22.9) n (%)
- Non-responder n (%), UAS7 = 0 (Week 12): 28 (80.0) n (%)
- Non-responder n (%), UAS7 ≤6 (Week 12): 23 (65.7) n (%)
- OR for rilzabrutinib vs. placebo, UAS7 = 0 (Week 12): 1.800
- OR for rilzabrutinib vs. placebo, UAS7 ≤6 (Week 12): 3.980
- RRD (%) for rilzabrutinib vs. placebo, UAS7 = 0 (Week 12): 6.9 %
- RRD (%) for rilzabrutinib vs. placebo, UAS7 ≤6 (Week 12): 20.3 %
- Responder n (%), UAS7 = 0 (Week 12): 7 (20.0) n (%)
- Responder n (%), UAS7 ≤6 (Week 12): 12 (34.3) n (%)
- Non-responder, UAS7 reduction from baseline of 10 points or more (400 mg BID, ITT population): 23 (56.1) n (%)
- OR for rilzabrutinib vs. placebo, UAS7 reduction of 10 points or more (400 mg BID, ITT population): 2.607
- RRD (%) for rilzabrutinib vs. placebo, UAS7 reduction of 10 points or more (400 mg BID, ITT population): 20.0 %
- Responder, UAS7 reduction from baseline of 10 points or more (400 mg BID, ITT population): 18 (43.9) n (%)
- UAS7 Change from baseline Mean (SD) (400 mg BID, Omalizumab-Naïve): −9.96 (8.81)
- UAS7 Change from baseline Median (400 mg BID, Omalizumab-Naïve): −9.00
- UAS7 Mean (SD) (400 mg BID, Omalizumab-Naïve): 19.77 (11.32)
- UAS7 Median (400 mg BID, Omalizumab-Naïve): 21.00
- UAS7 Percent change from baseline Mean (SD) (400 mg BID, Omalizumab-Naïve): −35.41 (33.69) %
- UAS7 Percent change from baseline Median (400 mg BID, Omalizumab-Naïve): −26.19%
- UAS7 Change from baseline Mean (SD) [1]: −11.83 (12.14)
- UAS7 Change from baseline Median [1]: −7.50
- UAS7 Median [1]: 23.50
- UAS7 Percent change from baseline Mean (SD) [1]: −35.59 (37.55) %
- UAS7 Percent change from baseline Median [1]: −20.53%
- Non-responder, UAS7 reduction from baseline of 10 points or more [2]: 19 (54.3) n (%)
- OR for rilzabrutinib vs. placebo, UAS7 reduction of 10 points or more [2]: 2.862
- RRD (%) for rilzabrutinib vs. placebo, UAS7 reduction of 10 points or more [2]: 22.3 %
- Responder, UAS7 reduction from baseline of 10 points or more [2]: 16 (45.7) n (%)
- Non-responder, UAS7 reduction from baseline of 10 points or more (400 mg QPM, ITT population): 26 (68.4) n (%)
- OR for rilzabrutinib vs. placebo, UAS7 reduction of 10 points or more (400 mg QPM, ITT population): 1.672
- Responder, UAS7 reduction from baseline of 10 points or more (400 mg QPM, ITT population): 12 (31.6) n (%)
- UAS7 Change from baseline Mean (SD) (400 mg QPM, Omalizumab-Naïve): −7.30 (9.14)
- UAS7 Change from baseline Median (400 mg QPM, Omalizumab-Naïve): −6.00
- UAS7 Mean (SD) (400 mg QPM, Omalizumab-Naïve): 23.81 (8.78)
- UAS7 Median (400 mg QPM, Omalizumab-Naïve): 25.00
- UAS7 Percent change from baseline Mean (SD) (400 mg QPM, Omalizumab-Naïve): −21.72 (26.65) %
- UAS7 Percent change from baseline Median (400 mg QPM, Omalizumab-Naïve): −17.95%
- UAS7 Change from baseline Mean (SD) [3]: −16.00 (NC)
- UAS7 Change from baseline Median [3]: −16.00
- UAS7 Mean (SD) [3]: 25.00 (NC)
- UAS7 Median [3]: 25.00
